Results taken from paper PMC9879200, “Dual-target ligand discovery for Alzheimer’s disease: triphenylphosphoranylidene derivatives as inhibitors of acetylcholinesterase and β-amyloid aggregation” (Journal of Enzyme Inhibition and Medicinal Chemistry, 2023).
“Also recorded” adds a separate entry of the source. Like-named read-outs stand apart in the source and are kept apart here.

Columns and labels:
AChE [1] = target: T1, AChE (Homo sapiens, UniProt P22303); experiment: In vitro AChE inhibition assay (improved Ellman spectrophotometric method); type: biochemical
T1 construct: purchased Bioassays System (BioAssay Systems) IACE-100
T1 sequence (P22303 32-614): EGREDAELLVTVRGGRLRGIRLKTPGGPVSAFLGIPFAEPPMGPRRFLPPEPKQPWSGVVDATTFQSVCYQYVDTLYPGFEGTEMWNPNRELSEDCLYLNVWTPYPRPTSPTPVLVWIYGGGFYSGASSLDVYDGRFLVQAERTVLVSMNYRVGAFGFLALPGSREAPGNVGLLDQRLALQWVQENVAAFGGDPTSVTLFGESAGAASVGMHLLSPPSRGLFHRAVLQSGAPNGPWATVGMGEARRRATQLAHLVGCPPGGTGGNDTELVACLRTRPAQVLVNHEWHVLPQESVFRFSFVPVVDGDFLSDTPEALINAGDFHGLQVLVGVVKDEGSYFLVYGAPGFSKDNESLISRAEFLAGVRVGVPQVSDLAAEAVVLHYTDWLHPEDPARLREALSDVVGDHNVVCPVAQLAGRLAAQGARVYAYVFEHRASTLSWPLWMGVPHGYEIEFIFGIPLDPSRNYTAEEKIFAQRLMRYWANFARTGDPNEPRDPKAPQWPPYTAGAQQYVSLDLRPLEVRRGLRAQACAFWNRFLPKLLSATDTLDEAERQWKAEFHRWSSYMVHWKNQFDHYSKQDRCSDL
Excerpt: (§1) For AChE and BuChE inhibition experiments, Ellman et al. method’s was applied with a few minor adjustments. According to the manufacturer’s recommendations, the QuantiChromTM AChE Inhibitor Screening Kit (IACE-100), Bioassays System, and the Cholinesterase (ChE) Activity Assay Kit, LifeSpan BioSciences, Inc., USA, were used to measure the inhibition of AChE and BuChE, respectively. […] The relationship between product colour and enzyme activity after inhibition is established. Substrates included butyrylthiocholine iodide and acetylthiocholine iodide.

Aβ1–42 = target: T2, Aβ1–42 (Homo sapiens, UniProt P05067); experiment: Self-induced Aβ1–42 aggregation inhibition assay (Thioflavin T, fluorometric); type: biochemical; details: Thioflavin T fluorescence; read-out: Self-induced Aβ1–42 aggregation IC50 (nM) ± SD
T2 construct: the beta amyloid 1–42 (Aβ42) Ligand Screening Assay Kit (Fluorometric) (K570-100); purchased BioVision K570-100
T2 sequence (P05067 672-713 limits assumed): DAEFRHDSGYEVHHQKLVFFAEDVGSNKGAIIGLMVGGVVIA

[2] = SH-SY5Y neuroblastoma cell toxicity (MTT assay); details: human, SH-SY5Y neuroblastoma cells
Experimental: (§2) The cell viability was determined through using MTT assay.
(§3) The American Type Culture Collection provided the cells (Rockville, MD). […] The chemical was applied to the cells at various doses ([…]) for 48 h. The MTT colorimetric assay’s described methodology was then used[57].

[3] = test system: AChE (IC50 in the denominator); experiment: SH-SY5Y neuroblastoma cell toxicity (MTT assay); details: human, SH-SY5Y neuroblastoma cells
Experimental: as §2, §3

MMP-2 = target: T3, MMP-2 (Homo sapiens, UniProt P08253); experiment: MMP-2 inhibitor screening assay (fluorometric, FRET peptide); type: biochemical
T3 construct: purchased Abcam ab139447
T3 sequence (P08253 110-660): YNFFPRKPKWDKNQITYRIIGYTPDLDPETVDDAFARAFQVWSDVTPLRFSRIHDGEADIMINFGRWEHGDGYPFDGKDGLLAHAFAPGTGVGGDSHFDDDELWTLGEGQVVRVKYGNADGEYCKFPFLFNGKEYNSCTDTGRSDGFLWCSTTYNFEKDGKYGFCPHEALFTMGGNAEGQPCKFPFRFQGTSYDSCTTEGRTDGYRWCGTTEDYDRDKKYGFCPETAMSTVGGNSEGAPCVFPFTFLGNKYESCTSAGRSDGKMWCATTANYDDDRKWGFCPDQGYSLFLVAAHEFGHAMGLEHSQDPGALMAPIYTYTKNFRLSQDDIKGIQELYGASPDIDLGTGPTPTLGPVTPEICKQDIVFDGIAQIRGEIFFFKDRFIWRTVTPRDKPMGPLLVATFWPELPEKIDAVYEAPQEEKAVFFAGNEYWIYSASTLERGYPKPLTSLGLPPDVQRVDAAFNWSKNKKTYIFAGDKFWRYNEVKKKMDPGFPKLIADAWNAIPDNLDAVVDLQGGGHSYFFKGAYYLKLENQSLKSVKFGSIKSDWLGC
Excerpt: Matrix Metalloproteinase-2 (MMP-2) is known for its impact on neurological disorders as AD[44–46].
This assay kit uses a fluorescence resonance energy transfer (FRET) peptide as a generic MMP activity indicator. In the intact FRET peptide, the fluorescence of one part is quenched by another. After cleavage into two separate fragments by MMPs, the fluorescence is recovered.

AChE [4] = target: T1, AChE; experiment: Kinetic study of AChE inhibition (Lineweaver-Burk and Dixon plots); type: biochemical
Excerpt: Figure 5.
as §1

[5] = test system: scopolamine-induced memory impairment in mice; experiment: Y-maze test, scopolamine-induced amnesia model; type: in vivo
Experimental: In order to test potential anticholinergic medication candidates, the in vivo scopolamine model was employed to cause memory impairment in mice. Scopolamine can inhibit the cholinergic system by antagonising the muscarinic receptor[47].
Animal working memory is assessed using the hippocampal-dependent Y-maze test. Working memory is measured using the spontaneous alternation score[48].
In the current investigation, adult Swiss Albino mice (8–10 weeks old, weighing 25–30 g) from the National Research Centre were employed. For 1 week, animals were acclimated in a room with constant illumination, humidity, and temperature (22 °C ± 1 °C, 60%, and 12 h of light/dark cycle). Throughout the experiment, unlimited amounts of food and water were given. Mice were kept in open, opaque propylene cages with good ventilation and wide access to a variety of forages.
(§4) Healthy mice were randomised into four groups of six mice each after a 1-week adaption period, at random, as follows: Group 1 is the control group, which received saline solution with 10% Tween 80. […] Following the injection of scopolamine, the behavioural study will be examined 30 min later.
In the Y-maze, a test of working memory, the animals’ capacity for spontaneous alternation was evaluated[49]. Three equally spaced horizontal arms measuring 120°, 45 cm long, and 16 cm high make up the Y-maze. Each mouse was put into one of the three arms of the maze and given free rein to wander from arm to arm. Both the number and order of arm inputs were recorded. The spontaneous alternation is derived from the following equation as a measure of memory performance: (Alternations/Total Arm Entries) − 2 × 100 = percent alternation. The student’s t-test was used to assess the data.

BuChE enzyme = target: T4, BuChE enzyme (Homo sapiens, UniProt P06276); experiment: In vitro BuChE inhibition assay (modified Ellman spectrophotometric method); type: biochemical
T4 construct: purchased LifeSpan BioSciences, Inc., USA
T4 sequence (P06276 29-602): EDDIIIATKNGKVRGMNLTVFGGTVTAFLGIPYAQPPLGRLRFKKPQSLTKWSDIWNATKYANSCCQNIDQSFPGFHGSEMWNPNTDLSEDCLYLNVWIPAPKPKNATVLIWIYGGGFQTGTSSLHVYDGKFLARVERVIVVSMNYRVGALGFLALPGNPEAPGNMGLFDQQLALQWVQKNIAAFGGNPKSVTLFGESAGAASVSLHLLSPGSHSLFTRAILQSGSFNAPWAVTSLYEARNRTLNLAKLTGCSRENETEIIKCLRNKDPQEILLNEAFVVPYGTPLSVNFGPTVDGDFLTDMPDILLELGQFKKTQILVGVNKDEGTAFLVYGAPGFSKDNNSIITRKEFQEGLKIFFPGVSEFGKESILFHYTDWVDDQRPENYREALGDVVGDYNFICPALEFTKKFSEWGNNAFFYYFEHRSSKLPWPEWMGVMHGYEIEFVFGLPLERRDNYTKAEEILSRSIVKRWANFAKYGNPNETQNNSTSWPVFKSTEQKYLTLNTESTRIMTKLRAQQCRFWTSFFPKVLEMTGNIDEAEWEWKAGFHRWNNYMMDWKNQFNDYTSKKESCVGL
Experimental: This was carried out by using the modified Ellman spectrophotometric method.
as §1

[6] = test system: scopolamine-induced cognitive impairment; experiment: Step-down passive avoidance test, scopolamine-induced amnesia model; type: in vivo; details: mice; for transfer latency time (TLT), passive avoidance test: 1 mg/kg orally 30 min before scopolamine 3 mg/kg intraperitoneal
Experimental: In order to test potential anticholinergic medication candidates, the in vivo scopolamine model was employed to cause memory impairment in mice.
For 1 week, animals were acclimated in a room with constant illumination, humidity, and temperature (22 °C ± 1 °C, 60%, and 12 h of light/dark cycle). Throughout the experiment, unlimited amounts of food and water were given. Mice were kept in open, opaque propylene cages with good ventilation and wide access to a variety of forages.
as §4
The passive avoidance test was conducted in a device that had two independent compartments split by a sliding door. There was a connection between the illuminated chamber and a dark compartment with an electrifiable grid floor, which was free of electric impulses. Each mouse was initially placed in the lit chamber so that it could become accustomed to it. The sliding door is then opened, allowing access to the enclosed, gloomy space. The door was shut once the animal had entered the chamber entirely, and it was then shocked with an electric shock lasting two seconds (24 V, 0.5 mA). The latency time to enter the dark container was measured to gauge working memory (Training trial). Twenty-four hours after the training trial, a test trial was carried out without application of the electric foot shock[50].

[7] = read-out: AChE IC50 (nM) ± SD, average of triplicate determination, Ellman method, pH 7.5

C[Si]1(Cl)C=C/C(=N\c2ccccc2)C1=P(c1ccccc1)(c1ccccc1)c1ccccc1 (stereo not shown) [C00001]
IC50 (AChE [1]): 206 ± 7.33 nM

CCc1c(CC)/c(=N/c2ccccc2)c1=P(c1ccccc1)(c1ccccc1)c1ccccc1 [C00006]
IC50 (AChE [1]): 507 ± 22.1 nM

C=CC(C(C)=O)=P(c1ccccc1)(c1ccccc1)c1ccccc1 [8c, 3-(Triphenylphosphoranylidene)pent-4-en-2-one]
IC50 (Aβ1–42): 302 ± 11.4 nM | CC50 at 48 h [2]: 7310 ± 260 nM | selectivity ratio at 48 h [3]: 75.3 | IC50 (MMP-2): 724 ± 16.5 nM | type of AChE inhibition (AChE [4]; Lineweaver-Burk plot, Vmax and Km patterns): uncompetitively; also recorded: uncompetitive | Ki (AChE [4]; estimate from Dixon plot, read-out: inhibitory constant, Ki): 15.7 nM | Y-maze test, percent alternations ([5]; mice, 1 mg/kg orally 30 min before scopolamine 3 mg/kg intraperitoneal): 83.9% | IC50 (AChE [1]): 97 nM | IC50 (BuChE enzyme): 84.8 ± 2.91 nM | Selectivity index (BuChE enzyme; Selectivity index = (BuChE IC50)/(AChE IC50)): 0.87 | transfer latency time (TLT), passive avoidance test [6]: 45.2 s

c1ccc(N=c2c(-c3ccccc3)c(-c3ccccc3)c2=P(c2ccccc2)(c2ccccc2)c2ccccc2)cc1 [11a, N-(2,3-diphenyl-4-(triphenylphosphoranylidene)cyclobut-2-en-1-ylidene)aniline]
IC50 (AChE [1]): 185 nM

CN1[C@@H]2C[C@@H](OC(=O)[C@H](CO)c3ccccc3)C[C@H]1[C@@H]1O[C@@H]12 [Scopolamine]
Y-maze test, percent alternations, scopolamine model group ([5]; mice, scopolamine 3 mg/kg intraperitoneal alone, control group 82.1): 51.2% | transfer latency time (TLT), passive avoidance test, scopolamine-treated group ([6]; scopolamine 3 mg/kg intraperitoneal alone): 27.2 s

c1ccc(/N=c2/c(-c3ccccc3)c(-c3ccccc3)c2=P(c2ccccc2)(c2ccccc2)c2ccccc2)cc1 [C00002]
IC50 (AChE [1]): 185 ± 9.22 nM

C=CC(C(=O)OC)=P(c1ccccc1)(c1ccccc1)c1ccccc1 [8b, Methyl 2-(triphenylphosphoranylidene)but-3-enoate]
IC50 (AChE [1]): 158 nM

C[Si](C)(C)c1c([Si](C)(C)C)c(=P(c2ccccc2)(c2ccccc2)c2ccccc2)c1=O [C00010]
IC50 (AChE [1]; [7]): 113 ± 4.82 nM

C[Si]1(Cl)C=CC(=Nc2ccccc2)C1=P(c1ccccc1)(c1ccccc1)c1ccccc1 (stereo not shown) [5a, N-(1-chloro-1-methyl-2-(triphenylphosphoranylidene)-1H-silol-3(2H)-ylidene)aniline]
IC50 (AChE [1]): 206 nM

C[Si](C)(C)c1c([Si](C)(C)C)c(=P(c2ccccc2)(c2ccccc2)c2ccccc2)c1=O [compound 15, 2,3-Bis(trimethylsilyl)-4-(triphenylphosphoranylidene)cyclobut-2-enone]
IC50 (AChE [1]): 113 nM

COc1cc2c(cc1OC)C(=O)C(CC1CCN(Cc3ccccc3)CC1)C2 (stereo not shown) [Donepezil]
Y-maze test, percent alternations ([5]; 1 mg/kg): 80.7% | transfer latency time (TLT), passive avoidance test [6]: 44.0 s

C=CC(C(=O)c1ccccc1)=P(c1ccccc1)(c1ccccc1)c1ccccc1 [8d, 1-Phenyl-2-(triphenylphosphoranylidene)but-3-en-1-one]
IC50 (AChE [1]): 426 nM

CCc1c(CC)c(=P(c2ccccc2)(c2ccccc2)c2ccccc2)c1=O [C00008]
IC50 (AChE [1]; [7]): 249 ± 10.4 nM

O=c1c(-c2ccccc2)c(-c2ccccc2)c1=P(c1ccccc1)(c1ccccc1)c1ccccc1 [11b, 2,3-Diphenyl-4-(triphenylphosphoranylidene)cyclobut-2-enone]
IC50 (AChE [1]): 508 nM

C[Si]1(Cl)C=CC(=O)C1=P(c1ccccc1)(c1ccccc1)c1ccccc1 (stereo not shown) [5b, 1-Chloro-1-methyl-2-(triphenylphosphoranylidene)-1H-silol-3(2H)-one]
IC50 (AChE [1]): 345 nM

CCc1c(CC)c(=P(c2ccccc2)(c2ccccc2)c2ccccc2)c1=O [13b, 2,3-Diethyl-4-(triphenylphosphoranylidene)cyclobut-2-enone]
IC50 (AChE [1]): 249 nM
